# Experimental data published in article PMC10823224, “γδ T cell antigen receptor polyspecificity enables T cell responses to a broad range of immune challenges” (Proceedings of the National Academy of Sciences of the …, 2024).
# Target: T1, human recombinant TG2 (Homo sapiens, UniProt P21980)
# T1 construct: gene TGM2; recombinant, enzymatically active
# T1 sequence (P21980 2-687): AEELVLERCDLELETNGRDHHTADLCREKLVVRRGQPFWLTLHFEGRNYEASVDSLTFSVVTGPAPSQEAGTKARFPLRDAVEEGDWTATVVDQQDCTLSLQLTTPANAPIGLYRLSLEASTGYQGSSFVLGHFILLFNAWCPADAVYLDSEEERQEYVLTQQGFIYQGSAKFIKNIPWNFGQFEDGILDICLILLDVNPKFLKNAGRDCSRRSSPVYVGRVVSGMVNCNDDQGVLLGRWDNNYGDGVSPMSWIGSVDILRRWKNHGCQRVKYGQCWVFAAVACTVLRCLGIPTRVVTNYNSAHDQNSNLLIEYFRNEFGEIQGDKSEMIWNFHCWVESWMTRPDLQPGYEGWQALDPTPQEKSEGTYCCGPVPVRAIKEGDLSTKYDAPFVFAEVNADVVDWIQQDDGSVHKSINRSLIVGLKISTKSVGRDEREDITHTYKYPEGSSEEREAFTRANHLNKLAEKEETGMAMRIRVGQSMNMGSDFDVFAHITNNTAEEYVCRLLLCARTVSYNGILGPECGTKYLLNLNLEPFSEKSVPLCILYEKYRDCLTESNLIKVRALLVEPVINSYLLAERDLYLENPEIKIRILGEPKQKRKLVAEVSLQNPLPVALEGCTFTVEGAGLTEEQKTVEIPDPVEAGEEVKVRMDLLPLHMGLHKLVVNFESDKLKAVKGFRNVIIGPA
# Experiment: in vitro serotonylation of Rac1 peptide, ESI-MS
# Format: biochemical
# Conditions: 1 mM serotonin, biotinylated Rac1 peptide co-substrate, 10 mM CaCl2, pH 7.4, 37 °C overnight
compound,measurement,value
NCCc1c[nH]c2ccc(O)cc12 [5-HT],"in vitro serotonylation of Rac1 peptide, ESI-MS",the peptide was modified with a single serotonin moiety
